Results taken from ChEMBL document CHEMBL5500331, “Discovery of novel peptide-dehydroepiandrosterone hybrids inducing endoplasmic reticulum stress with effective in vitro and in vivo anti-melanoma activities” (Eur J Med Chem, 2024).
pIC50: −log10 of the molar value. The source made the active and inactive calls. No cut-off for these calls is given here.

What was measured:
[1] = system: B16; experiment: Antiproliferative activity against mouse B16 cells measured after 48 hrs by MTT assay; type: functional, cell-based; conditions: B16, 48 h
[2] = system: B16; experiment: Anti-melanoma activity against mouse B16 cells xenografted in Kunming mouse model assessed as suppression of tumor weight at 60 mg/kg, IG measured every two days for 27 days (reference value: 10.61+/-1.05g); type: functional; conditions: time 27 day
[3] = Toxicity in Kunming mouse assessed as effect on body weight at 60 mg/kg, IG measured after 21 days; type: organism-based; conditions: in vivo, po, 504 h, time 21 day
[4] = system: DU-145; experiment: Antiproliferative activity against human DU-145 cells at 25 uM measured after 48 hrs by MTT assay; type: functional, cell-based
[5] = Antiproliferative activity against human Prostate tumor cell line at 25 uM measured after 48 hrs by MTT assay relative to control; type: functional
[6] = system: B16; experiment: Anti-melanoma activity against mouse B16 cells xenografted in Kunming mouse model assessed as reduction in tumor volume at 60 mg/kg, IG measured after 5 days; type: functional, organism-based; conditions: time 5.0 day
[7] = system: B16; experiment: Anti-melanoma activity against mouse B16 cells xenografted in Kunming mouse model assessed as inhibition of tumor weight at 60 mg/kg, IG measured every two days for 27 days relative to control; type: functional; set-up: scale not given: the % may be the effect or the level left; conditions: time 27 day
[8] = system: B16; experiment: Anti-melanoma activity against mouse B16 cells xenografted in Kunming mouse model assessed as reduction in tumor volume at 60 mg/kg, IG measured after 7 to 27 days; type: functional, organism-based; conditions: time 7-27 day
[9] = system: PC-3; experiment: Antiproliferative activity against human PC-3 cells at 25 uM measured after 48 hrs by MTT assay; type: functional, cell-based
[10] = system: BGC-823; experiment: Antiproliferative activity against human BGC-823 cells at 25 uM measured after 48 hrs by MTT assay relative to control; type: functional
[11] = system: B16; experiment: Antiproliferative activity against mouse B16 cells at 25 uM measured after 48 hrs by MTT assay relative to control; type: functional
[12] = system: HCT-116; experiment: Antiproliferative activity against human HCT-116 cells at 25 uM measured after 48 hrs by MTT assay relative to control; type: functional
[13] = system: B16; experiment: Upregulation of caspase 8 expression in mouse B16 cells at 9.70 uM measured after 48 hrs by Western blot analysis; type: functional, cell-based; conditions: dose 9.7 µM
[14] = system: B16; experiment: Upregulation of caspase 3 expression in mouse B16 cells at 9.70 uM measured after 48 hrs by Western blot analysis; type: functional, cell-based; conditions: dose 9.7 µM
[15] = system: B16; experiment: Effect on Bcl-2 expression in mouse B16 cells at 9.70 uM measured after 48 hrs by Western blot analysis; type: functional, cell-based; conditions: dose 9.7 µM
[16] = system: B16; experiment: Upregulation of […] expression in mouse B16 cells at 9.70 uM measured after 48 hrs by Western blot analysis; type: functional, cell-based; conditions: dose 9.7 µM
[17] = Induction of apoptosis in mouse B16 cells at 19.4 uM measured after 48 hrs by annexin-V/PI double staining based flow cytometry analysis relative to control; type: functional
[18] = Inhibition of cell migration in mouse B16 cells at 9.70 uM measured after 48 hrs by scratch-wound healing assay relative to control; type: functional
[19] = Drug metabolism in mouse plasma assessed as abiraterone Tmax at 20 mg/kg, IG; type: ADME, organism-based; conditions: in vivo, po
[20] = Drug metabolism in mouse plasma assessed as abiraterone Cmax at 20 mg/kg, IG; type: ADME, organism-based; conditions: in vivo, po
[21] = Induction of apoptosis in mouse B16 cells assessed as necrosis at 19.4 uM measured after 48 hrs by annexin-V/PI double staining based flow cytometry analysis relative to control; type: functional
[22] = system: B16; experiment: Anti-melanoma activity against mouse B16 cells xenografted in Kunming mouse model assessed as increase in bax expression at 60 mg/kg, IG measured after 27 days by IHC staining based analysis; type: functional, organism-based; conditions: time 27.0 day
[23] = system: B16; experiment: Induction of endoplasmic reticulum (ER) stress in mouse B16 cells assessed as effect on GRP78 expression at 9.70 uM measured after 48 hrs by Western blot analysis; type: functional, cell-based; conditions: dose 9.7 µM
[24] = system: B16; experiment: Anti-melanoma activity against mouse B16 cells xenografted in Kunming mouse model assessed as increase in caspase 8 expression at 60 mg/kg, IG measured after 27 days by IHC staining based analysis; type: functional, organism-based; conditions: time 27.0 day
[25] = Inhibition of cell invasion in mouse B16 cells at 9.70 uM measured after 24 hrs by crystal violet staining based analysis relative to control; type: functional
[26] = system: B16; experiment: Anti-melanoma activity against mouse B16 cells xenografted in Kunming mouse model assessed as decrease in bcl-2 level at 60 mg/kg, IG measured after 27 days by IHC staining based analysis; type: functional, organism-based; conditions: time 27.0 day
[27] = system: B16; experiment: Anti-melanoma activity against mouse B16 cells xenografted in Kunming mouse model assessed as increase in caspase 3 expression at 60 mg/kg, IG measured after 27 days by IHC staining based analysis; type: functional, organism-based; conditions: time 27.0 day
[28] = system: B16; experiment: Induction of endoplasmic reticulum (ER) stress in mouse B16 cells assessed as effect on CHOP expression at 9.70 uM measured after 48 hrs by Western blot analysis; type: functional, cell-based; conditions: dose 9.7 µM
[29] = Inhibition of cell migration in mouse B16 cells at 9.70 uM measured after 24 hrs by crystal violet staining based analysis relative to control; type: functional
[30] = system: B16; experiment: Downregulation of Bcl-2 expression in mouse B16 cells at 9.70 uM measured after 48 hrs by Western blot analysis; type: functional, cell-based; conditions: dose 9.7 µM
[31] = system: B16; experiment: Induction of endoplasmic reticulum (ER) stress in mouse B16 cells assessed as decrease in alix expression at 9.70 uM measured after 48 hrs by Western blot analysis; type: functional, cell-based; conditions: dose 9.7 µM
[32] = system: B16; experiment: Anti-melanoma activity against mouse B16 cells xenografted in Kunming mouse model assessed as reduction in tumor volume at 60 mg/kg, IG measured upto 27 days; type: functional, organism-based; conditions: time <= 27.0 day

C[C@]12CC[C@H](O)CC1=CC[C@@H]1[C@@H]2CC[C@]2(C)C(c3ccc(Cl)nc3)=CC[C@@H]12
pIC50 [1]: 3.95

C[C@]12CC[C@H](OC(=O)[C@@H]3CCCN3C(=O)CN)CC1=CC[C@@H]1[C@@H]2CC[C@]2(C)C(c3cccnc3)=CC[C@@H]12
pIC50 [1]: < 3.00

CC(C)[C@H](NC(=O)CN)C(=O)O[C@H]1CC[C@@]2(C)C(=CC[C@@H]3[C@@H]2CC[C@]2(C)C(c4cnccc4Cl)=CC[C@@H]32)C1
pIC50 [1]: 5.42

C[C@]12CC[C@H](O)CC1=CC[C@@H]1[C@@H]2CC[C@]2(C)C(c3cccnc3)=CC[C@@H]12 [ABIRATERONE]
Activity [2]: 8.7 g | Activity [3]: Toxic | Activity [4]: Active | Activity [5]: 69.3% | Activity [6]: Active | pIC50 [1]: 3.98 | Activity [7]: 17.93% | Activity [8]: inactive | Activity [9]: Active

CC(C)[C@H](N)C(=O)N[C@@H](C)C(=O)O[C@H]1CC[C@@]2(C)C(=CC[C@@H]3[C@@H]2CC[C@]2(C)C(O)=CC[C@@H]32)C1
Activity [10]: 81.6% | Activity [11]: 83.7% | Activity [12]: 66%

C[C@]12CC[C@H](OC(=O)CN)CC1=CC[C@@H]1[C@@H]2CC[C@]2(C)C(c3cccnc3)=CC[C@@H]12
pIC50 [1]: 3.66

CC(C)C[C@H](NC(=O)CN)C(=O)O[C@H]1CC[C@@]2(C)C(=CC[C@@H]3[C@@H]2CC[C@]2(C)C(c4cccnc4)=CC[C@@H]32)C1
Activity [13]: Active | pIC50 [1]: 4.52 | Activity [14]: Active | Activity [15]: inactive | Activity [16]: Active

C[C@]12CC[C@H](OC(=O)CN)CC1=CC[C@@H]1[C@@H]2CC[C@]2(C)C(O)=CC[C@@H]12
pIC50 [1]: 4.15

CC(=O)O[C@H]1CC[C@@]2(C)C(=CC[C@@H]3[C@@H]2CC[C@]2(C)C(c4ccc(Cl)nc4)=CC[C@@H]32)C1
pIC50 [1]: < 3.00

CC(C)[C@H](NC(=O)CN)C(=O)O[C@H]1CC[C@@]2(C)C(=CC[C@@H]3[C@@H]2CC[C@]2(C)C(O)=CC[C@@H]32)C1
pIC50 [1]: 4.78

C[C@]12CC[C@H](OC(=O)CNC(=O)CN)CC1=CC[C@@H]1[C@@H]2CC[C@]2(C)C(c3cccnc3)=CC[C@@H]12
pIC50 [1]: 3.75

CC(=O)O[C@H]1CC[C@@]2(C)C(=CC[C@@H]3[C@@H]2CC[C@]2(C)C(c4cccnc4)=CC[C@@H]32)C1 [ABIRATERONE ACETATE]
Activity [17]: 9% | inhibition at 9.7 µM [18]: 64% | Activity [13]: Active | Tmax [19]: 4 h | Activity [2]: 2.5 g | Activity [3]: Toxic | Activity [4]: Active | Activity [6]: Active | Cmax [20]: 681 ng/mL | pIC50 [1]: 4.54 | Activity [14]: inactive | Activity [7]: 76.42% | Activity [8]: inactive | Activity [21]: 49.8% | Activity [22]: Active | Activity [23]: inactive | Activity [24]: Active | inhibition at 9.7 µM [25]: 61% | Activity [26]: Active | Activity [27]: Active | Activity [28]: inactive | inhibition at 9.7 µM [29]: 51% | Activity [9]: Active | Activity [30]: Active | Activity [31]: Active | Activity [32]: inactive | Activity [16]: Active

CC(C)[C@H](NC(=O)CN)C(=O)O[C@H]1CC[C@@]2(C)C(=CC[C@@H]3[C@@H]2CC[C@]2(C)C(c4ccc(F)nc4)=CC[C@@H]32)C1
pIC50 [1]: 5.50

CC(C)C[C@H](N)C(=O)O[C@H]1CC[C@@]2(C)C(=CC[C@@H]3[C@@H]2CC[C@]2(C)C(O)=CC[C@@H]32)C1
pIC50 [1]: < 3.00

CC(C)[C@H](N)C(=O)N[C@H](C(=O)O[C@H]1CC[C@@]2(C)C(=CC[C@@H]3[C@@H]2CC[C@]2(C)C(O)=CC[C@@H]32)C1)C(C)C
pIC50 [1]: 4.63

CC(C)[C@H](N)C(=O)NCC(=O)O[C@H]1CC[C@@]2(C)C(=CC[C@@H]3[C@@H]2CC[C@]2(C)C(c4cccnc4)=CC[C@@H]32)C1
pIC50 [1]: 4.87

COc1ccc(C2=CC[C@H]3[C@@H]4CC=C5C[C@@H](OC(C)=O)CC[C@]5(C)[C@H]4CC[C@]23C)cn1
pIC50 [1]: < 3.00

C[C@]12CC[C@H](O)CC1=CC[C@@H]1[C@@H]2CC[C@]2(C)C(c3ccc(F)nc3)=CC[C@@H]12
pIC50 [1]: 4.25
